In the supplement of paper PMC11208160:
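Further: IS621 bridge recombinase in Escherichia coli cells against a fixed T5 target plasmid.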

Assay: recombinant UMI read abundance after kanamycin selection (control-corrected) (log10(CPM+1)); higher = more efficient recombination; extreme values may be limits of the assay; sequences stand for … in AGTGCAGAGAAAATCGGCCAGTTTTCTCTGCCTGCAGTCCGCATGCCGTGGGACCCCTTGGGTTCTAACCTGTTGCCTAGATTTATGCAGCGGACTGCCTTTCTCCCAAAGTGATAAACCGG…AGGTTGGTTTCACT; site = the 11-nt donor
In short: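 Reported values are log10(CPM+1) from a pooled Escherichia coli screen of donor and donor-binding-loop pairs for the IS621 bridge recombinase. Selection used IPTG (0.07 mM) plus kanamycin, against unselected plating, each in two replicates. Recombinant UMIs were amplified across the donor–target junction, sequenced, converted to CPM, averaged over replicates and scaled by control-derived factors.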
For “TAATTGACATGGACCGGTTTTCCCGGTAATCCGTATTTGCT (site TATTTGACTAG)”, the “recombinant UMI read abundance (log10)” value was 0.698.
With “TACAACACATGGACCGGTTTTCCCGGTAATCCGTATTTGTG (site TACAACACTCA)” the “recombinant UMI read abundance (log10)” value was 0.148.
With “TACAATACATGGACCGGTTTTCCCGGTAATCCGTATTTGCA (site TAAAATACTTG)” the “recombinant UMI read abundance (log10)” value was 0.
With “TACAATACATGGACCGGTTTTCCCGGTAATCCGTATTTGCA (site TACAATACTTG)” the “recombinant UMI read abundance (log10)” value was 1.18.
For “TACAATACATGGACCGGTTTTCCCGGTAATCCGTATTTGCA (site TAGAATACTTG)”, the “recombinant UMI read abundance (log10)” value was 0.
In the case of “TACAATACATGGACCGGTTTTCCCGGTAATCCGTATTTGCA (site TATAATACTTG)”, the “recombinant UMI read abundance (log10)” value is reported as 0.
In the case of “TACAATCCATGGACCGGTTTTCCCGGTAATCCGTATTTGAG (site TACAATCCTCT)”, the “recombinant UMI read abundance (log10)” value is reported as 0.531.
With “TACAGACCATGGACCGGTTTTCCCGGTAATCCGTATTTGTC (site TACAGACCTGA)” the “recombinant UMI read abundance (log10)” value was 0.
With “TACAGCGCATGGACCGGTTTTCCCGGTAATCCGTATTTGCG (site TACAGCGCTCG)” the “recombinant UMI read abundance (log10)” value was 0.00572.
For “TACAGGCCATGGACCGGTTTTCCCGGTAATCCGTATTTGCT (site TACAGGCCTAG)”, the “recombinant UMI read abundance (log10)” value was 0.00356.
For “TACCACCCATGGACCGGTTTTCCCGGTAATCCGTATTTGCT (site TACCACCCTAG)”, the “recombinant UMI read abundance (log10)” value was 0.83.
In the case of “TACCCGCCATGGACCGGTTTTCCCGGTAATCCGTATTTGCG (site TACCCGCCTCG)”, the “recombinant UMI read abundance (log10)” value is reported as 0.26.
In the case of “TACCCTTCATGGACCGGTTTTCCCGGTAATCCGTATTTGGT (site TAACCTTCTAC)”, the “recombinant UMI read abundance (log10)” value is reported as 0.00354.
In the case of “TACCCTTCATGGACCGGTTTTCCCGGTAATCCGTATTTGGT (site TACCCTTCTAC)”, the “recombinant UMI read abundance (log10)” value is reported as 0.56.
In the case of “TACCCTTCATGGACCGGTTTTCCCGGTAATCCGTATTTGGT (site TAGCCTTCTAC)”, the “recombinant UMI read abundance (log10)” value is reported as 0.0115.
With “TACCCTTCATGGACCGGTTTTCCCGGTAATCCGTATTTGGT (site TATCCTTCTAC)” the “recombinant UMI read abundance (log10)” value was 0.00909.
In the case of “TACCTCTCATGGACCGGTTTTCCCGGTAATCCGTATTTGAC (site TACCTCTCTGT)”, the “recombinant UMI read abundance (log10)” value is reported as 0.216.
In the case of “TACCTGACATGGACCGGTTTTCCCGGTAATCCGTATTTGCT (site TACATGACTAG)”, the “recombinant UMI read abundance (log10)” value is reported as 0.
In the case of “TACCTGACATGGACCGGTTTTCCCGGTAATCCGTATTTGCT (site TACCTGACTAG)”, the “recombinant UMI read abundance (log10)” value is reported as 0.461.
In the case of “TACCTGACATGGACCGGTTTTCCCGGTAATCCGTATTTGCT (site TACGTGACTAG)”, the “recombinant UMI read abundance (log10)” value is reported as 0.
For “TACCTGACATGGACCGGTTTTCCCGGTAATCCGTATTTGCT (site TACTTGACTAG)”, the “recombinant UMI read abundance (log10)” value was 0.
For “TACCTTCCATGGACCGGTTTTCCCGGTAATCCGTATTTGGC (site TACCTTCCTGC)”, the “recombinant UMI read abundance (log10)” value was 0.
With “TACGATCCATGGACCGGTTTTCCCGGTAATCCGTATTTGCT (site TACGATCCTAG)” the “recombinant UMI read abundance (log10)” value was 1.96.
For “TACGGAGCATGGACCGGTTTTCCCGGTAATCCGTATTTGCC (site AGTCTTACTAA)”, the “recombinant UMI read abundance (log10)” value was 0.
For “TACGGCCCATGGACCGGTTTTCCCGGTAATCCGTATTTGTT (site AACGGCCCTAA)”, the “recombinant UMI read abundance (log10)” value was 0.0182.
In the case of “TACGGCCCATGGACCGGTTTTCCCGGTAATCCGTATTTGTT (site CACGGCCCTAA)”, the “recombinant UMI read abundance (log10)” value is reported as 0.00844.
With “TACGGCCCATGGACCGGTTTTCCCGGTAATCCGTATTTGTT (site GACGGCCCTAA)” the “recombinant UMI read abundance (log10)” value was 0.00736.
With “TACGGCCCATGGACCGGTTTTCCCGGTAATCCGTATTTGTT (site TACGGCCCTAA)” the “recombinant UMI read abundance (log10)” value was 0.00191.
With “TACGGCGCATGGACCGGTTTTCCCGGTAATCCGTATTTGCC (site TACGGCGCTGG)” the “recombinant UMI read abundance (log10)” value was 2.01.
With “TACGTGACATGGACCGGTTTTCCCGGTAATCCGTATTTGAC (site TACGTGACTGT)” the “recombinant UMI read abundance (log10)” value was 1.74.
In the case of “TACTCCTCATGGACCGGTTTTCCCGGTAATCCGTATTTGGG (site TACTCCTCTCC)”, the “recombinant UMI read abundance (log10)” value is reported as 0.0269.
For “TACTCTCCATGGACCGGTTTTCCCGGTAATCCGTATTTGTG (site TACTCTCCTCA)”, the “recombinant UMI read abundance (log10)” value was 0.011.
In the case of “TACTGCACATGGACCGGTTTTCCCGGTAATCCGTATTTGGG (site TACTGCACTCC)”, the “recombinant UMI read abundance (log10)” value is reported as 0.0129.
For “TACTTAACATGGACCGGTTTTCCCGGTAATCCGTATTTGCT (site TACTTAACTAG)”, the “recombinant UMI read abundance (log10)” value was 0.345.
With “TACTTAACATGGACCGGTTTTCCCGGTAATCCGTATTTGCT (site TACTTCACTAG)” the “recombinant UMI read abundance (log10)” value was 0.00655.
For “TACTTAACATGGACCGGTTTTCCCGGTAATCCGTATTTGCT (site TACTTGACTAG)”, the “recombinant UMI read abundance (log10)” value was 0.00699.
For “TACTTAACATGGACCGGTTTTCCCGGTAATCCGTATTTGCT (site TACTTTACTAG)”, the “recombinant UMI read abundance (log10)” value was 0.
With “TACTTCACATGGACCGGTTTTCCCGGTAATCCGTATTTGCT (site TACTTAACTAG)” the “recombinant UMI read abundance (log10)” value was 0.0118.
For “TACTTCACATGGACCGGTTTTCCCGGTAATCCGTATTTGCT (site TACTTCACTAG)”, the “recombinant UMI read abundance (log10)” value was 1.9.
For “TACTTCACATGGACCGGTTTTCCCGGTAATCCGTATTTGCT (site TACTTGACTAG)”, the “recombinant UMI read abundance (log10)” value was 0.0117.
In the case of “TACTTCACATGGACCGGTTTTCCCGGTAATCCGTATTTGCT (site TACTTTACTAG)”, the “recombinant UMI read abundance (log10)” value is reported as 0.
With “TACTTGACATGGACCGGTTTTCCCGGTAATCCGTATTTGGT (site TACTTGACTAA)” the “recombinant UMI read abundance (log10)” value was 0.109.
In the case of “TACTTGACATGGACCGGTTTTCCCGGTAATCCGTATTTGGT (site TACTTGACTAC)”, the “recombinant UMI read abundance (log10)” value is reported as 0.209.
For “TACTTGACATGGACCGGTTTTCCCGGTAATCCGTATTTGGT (site TACTTGACTAG)”, the “recombinant UMI read abundance (log10)” value was 0.
In the case of “TACTTGACATGGACCGGTTTTCCCGGTAATCCGTATTTGGT (site TACTTGACTAT)”, the “recombinant UMI read abundance (log10)” value is reported as 0.179.
For “TAGAAAACATGGACCGGTTTTCCCGGTAATCCGTATTTGGA (site TAGAAAACTTC)”, the “recombinant UMI read abundance (log10)” value was 0.76.
In the case of “TAGAACACATGGACCGGTTTTCCCGGTAATCCGTATTTGCA (site TAGAAAACTTG)”, the “recombinant UMI read abundance (log10)” value is reported as 0.
For “TAGAACACATGGACCGGTTTTCCCGGTAATCCGTATTTGCA (site TAGAACACTTG)”, the “recombinant UMI read abundance (log10)” value was 2.41.
In the case of “TAGAACACATGGACCGGTTTTCCCGGTAATCCGTATTTGCA (site TAGAAGACTTG)”, the “recombinant UMI read abundance (log10)” value is reported as 0.271.
In the case of “TAGAACACATGGACCGGTTTTCCCGGTAATCCGTATTTGCA (site TAGAATACTTG)”, the “recombinant UMI read abundance (log10)” value is reported as 1.87.
For “TAGAATACATGGACCGGTTTTCCCGGTAATCCGTATTTGAA (site TAGAATACTTA)”, the “recombinant UMI read abundance (log10)” value was 0.0126.
In the case of “TAGAATACATGGACCGGTTTTCCCGGTAATCCGTATTTGAA (site TAGAATACTTC)”, the “recombinant UMI read abundance (log10)” value is reported as 0.0116.
With “TAGAATACATGGACCGGTTTTCCCGGTAATCCGTATTTGAA (site TAGAATACTTG)” the “recombinant UMI read abundance (log10)” value was 0.
In the case of “TAGAATACATGGACCGGTTTTCCCGGTAATCCGTATTTGAA (site TAGAATACTTT)”, the “recombinant UMI read abundance (log10)” value is reported as 0.686.
With “TAGAATACATGGACCGGTTTTCCCGGTAATCCGTATTTGCC (site TAGAATACTAG)” the “recombinant UMI read abundance (log10)” value was 0.
For “TAGAATACATGGACCGGTTTTCCCGGTAATCCGTATTTGCC (site TAGAATACTCG)”, the “recombinant UMI read abundance (log10)” value was 0.
For “TAGAATACATGGACCGGTTTTCCCGGTAATCCGTATTTGCC (site TAGAATACTGG)”, the “recombinant UMI read abundance (log10)” value was 0.
In the case of “TAGAATACATGGACCGGTTTTCCCGGTAATCCGTATTTGCC (site TAGAATACTTG)”, the “recombinant UMI read abundance (log10)” value is reported as 0.
In the case of “TAGAATACATGGACCGGTTTTCCCGGTAATCCGTATTTGCT (site TAGAATACTAG)”, the “recombinant UMI read abundance (log10)” value is reported as 1.3.
With “TAGAATACATGGACCGGTTTTCCCGGTAATCCGTATTTGCT (site TAGAATACTCG)” the “recombinant UMI read abundance (log10)” value was 0.00353.
In the case of “TAGAATACATGGACCGGTTTTCCCGGTAATCCGTATTTGCT (site TAGAATACTGG)”, the “recombinant UMI read abundance (log10)” value is reported as 0.
With “TAGAATACATGGACCGGTTTTCCCGGTAATCCGTATTTGCT (site TAGAATACTTG)” the “recombinant UMI read abundance (log10)” value was 0.00456.
In the case of “TAGAATCCATGGACCGGTTTTCCCGGTAATCCGTATTTGCA (site TAGAATACTTG)”, the “recombinant UMI read abundance (log10)” value is reported as 0.
In the case of “TAGAATCCATGGACCGGTTTTCCCGGTAATCCGTATTTGCA (site TAGAATCCTTG)”, the “recombinant UMI read abundance (log10)” value is reported as 1.16.
With “TAGAATCCATGGACCGGTTTTCCCGGTAATCCGTATTTGCA (site TAGAATGCTTG)” the “recombinant UMI read abundance (log10)” value was 0.
With “TAGAATCCATGGACCGGTTTTCCCGGTAATCCGTATTTGCA (site TAGAATTCTTG)” the “recombinant UMI read abundance (log10)” value was 0.
With “TAGAATGCATGGACCGGTTTTCCCGGTAATCCGTATTTGCA (site TAGAATACTTG)” the “recombinant UMI read abundance (log10)” value was 0.258.
For “TAGAATGCATGGACCGGTTTTCCCGGTAATCCGTATTTGCA (site TAGAATCCTTG)”, the “recombinant UMI read abundance (log10)” value was 0.762.
With “TAGAATGCATGGACCGGTTTTCCCGGTAATCCGTATTTGCA (site TAGAATGCTTG)” the “recombinant UMI read abundance (log10)” value was 2.71.
For “TAGAATGCATGGACCGGTTTTCCCGGTAATCCGTATTTGCA (site TAGAATTCTTG)”, the “recombinant UMI read abundance (log10)” value was 0.905.
In the case of “TAGAATTCATGGACCGGTTTTCCCGGTAATCCGTATTTGCA (site TAGAATACTTG)”, the “recombinant UMI read abundance (log10)” value is reported as 0.907.
With “TAGAATTCATGGACCGGTTTTCCCGGTAATCCGTATTTGCA (site TAGAATCCTTG)” the “recombinant UMI read abundance (log10)” value was 0.
With “TAGAATTCATGGACCGGTTTTCCCGGTAATCCGTATTTGCA (site TAGAATGCTTG)” the “recombinant UMI read abundance (log10)” value was 0.
In the case of “TAGAATTCATGGACCGGTTTTCCCGGTAATCCGTATTTGCA (site TAGAATTCTTG)”, the “recombinant UMI read abundance (log10)” value is reported as 1.53.
With “TAGACGCCATGGACCGGTTTTCCCGGTAATCCGTATTTGTG (site TAGACGCCTCA)” the “recombinant UMI read abundance (log10)” value was 0.00987.
